Reference: US11026877B2, “Cosmetic compositions for bleaching the skin” (Henkel AG & Co. KGaA, priority 2014, dated 2021)

Columns and labels:
Format in all cases: cell-based, human
Design in all cases: key: + stands for increased expression; − for reduced expression; 0 for no change
Conditions in all cases: topical, 24 hours, 30 μL, in water with 3% by weight PEG-40 Hydrogenated Castor Oil; in comparison with the blank control
[1] = tested on: TRP2; assay: Gene expression by quantitative real-time PCR in reconstructed melanocyte models type VI (Skinethic): TRP2
Procedure: (§1) The effect of licorice extract (oil-soluble) and ascorbyl tetraisopalmitate on the expression of melanogenesis-relevant genes was studied in reconstructed melanocyte models type VI from the company Skinethic. In this case, human keratinocytes were cultured together with type VI melanocytes, so that a very dark skin model forms. Together the cells form a three-dimensional epithelial tissue. Three models each were treated topically for 24 hours with 30 μL of the test formulations. In this case, the formulation is first applied to the model and then carefully distributed with a brush. Incubation then occurs at 37° C. with 5% CO2. Untreated models and models treated with a blank control (3% PEG-40 Hydrogenated Castor Oil in water) were run concurrently as the control. The gene expressions of the melanocyte-specific markers were studied using quantitative real-time PCR. […] In the subsequent PCR reaction, which is carried out with the aid of gene-specific primers for the particular markers and is used for the amplification of the target gene segments, the formation of the PCR products is detected online via a fluorescence signal. The fluorescence signal in this case is proportional to the amount of the formed PCR product. The greater the expression of a specific gene, the greater the amount of the formed PCR product and the greater the fluorescence signal. […]

[2] = tested on: Tyrosinase; assay: Gene expression by quantitative real-time PCR in reconstructed melanocyte models type VI (Skinethic): Tyr
Procedure: as §1

[3] = tested on: ckit; assay: Gene expression by quantitative real-time PCR in reconstructed melanocyte models type VI (Skinethic): ckit
Procedure: as §1

[4] = tested on: gp100; assay: Gene expression by quantitative real-time PCR in reconstructed melanocyte models type VI (Skinethic): gp100
Procedure: as §1

[5] = tested on: TRP1; assay: Gene expression by quantitative real-time PCR in reconstructed melanocyte models type VI (Skinethic): TRP1
Procedure: as §1

- Tyr gene expression [2]: +
Structure (SMILES): CCCCCCCCC(CCCCCC)C(=O)OC[C@H](OC(=O)C(CCCCCC)CCCCCCCC)[C@H]1OC(=O)C(OC(=O)C(CCCCCC)CCCCCCCC)=C1OC(=O)C(CCCCCC)CCCCCCCC (some centres unmarked) [0.05% Vitamin tetraisopalmitate, ascorbyl tetraisopalmitate]
- TRP2 gene expression [1]: +
- ckit gene expression [3]: 0
- Gp100 gene expression [4]: −
- TRP1 gene expression [5]: −
